Laboratory results published in US11214565B2, “Compound, compositions, and methods” (Denali Therapeutics Inc., priority 2015, dated 2022).
pIC50: −log10 of the molar value.

What follows are compounds tested against LRRK2 G2019S enzyme (Homo sapiens (Human), UniProt Q5S007, G2019S) (assay: LRRK2 G2019S TR-FRET biochemical kinase assay (LRRKtide substrate)). Settings: Table D-4; 5 nM LRRK2, 134 μM ATP, 60 minute reaction, 23° C.
Summary of the method: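 5 nM LRRK2 G2019S preincubated 20 min with LRRKtide and compound (3.162-fold dilution series) in Tris pH 7.5, MgCl2, EGTA, Brij-35, DTT, then reacted 60 min at 23 °C with 134 μM ATP. EDTA-stopped; pLRRKtide antibody detection, TR-FRET read at 340 nm excitation, 520/490–495 nm emission.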

Sequence of LRRK2 G2019S enzyme (Q5S007 whole entry G2019S): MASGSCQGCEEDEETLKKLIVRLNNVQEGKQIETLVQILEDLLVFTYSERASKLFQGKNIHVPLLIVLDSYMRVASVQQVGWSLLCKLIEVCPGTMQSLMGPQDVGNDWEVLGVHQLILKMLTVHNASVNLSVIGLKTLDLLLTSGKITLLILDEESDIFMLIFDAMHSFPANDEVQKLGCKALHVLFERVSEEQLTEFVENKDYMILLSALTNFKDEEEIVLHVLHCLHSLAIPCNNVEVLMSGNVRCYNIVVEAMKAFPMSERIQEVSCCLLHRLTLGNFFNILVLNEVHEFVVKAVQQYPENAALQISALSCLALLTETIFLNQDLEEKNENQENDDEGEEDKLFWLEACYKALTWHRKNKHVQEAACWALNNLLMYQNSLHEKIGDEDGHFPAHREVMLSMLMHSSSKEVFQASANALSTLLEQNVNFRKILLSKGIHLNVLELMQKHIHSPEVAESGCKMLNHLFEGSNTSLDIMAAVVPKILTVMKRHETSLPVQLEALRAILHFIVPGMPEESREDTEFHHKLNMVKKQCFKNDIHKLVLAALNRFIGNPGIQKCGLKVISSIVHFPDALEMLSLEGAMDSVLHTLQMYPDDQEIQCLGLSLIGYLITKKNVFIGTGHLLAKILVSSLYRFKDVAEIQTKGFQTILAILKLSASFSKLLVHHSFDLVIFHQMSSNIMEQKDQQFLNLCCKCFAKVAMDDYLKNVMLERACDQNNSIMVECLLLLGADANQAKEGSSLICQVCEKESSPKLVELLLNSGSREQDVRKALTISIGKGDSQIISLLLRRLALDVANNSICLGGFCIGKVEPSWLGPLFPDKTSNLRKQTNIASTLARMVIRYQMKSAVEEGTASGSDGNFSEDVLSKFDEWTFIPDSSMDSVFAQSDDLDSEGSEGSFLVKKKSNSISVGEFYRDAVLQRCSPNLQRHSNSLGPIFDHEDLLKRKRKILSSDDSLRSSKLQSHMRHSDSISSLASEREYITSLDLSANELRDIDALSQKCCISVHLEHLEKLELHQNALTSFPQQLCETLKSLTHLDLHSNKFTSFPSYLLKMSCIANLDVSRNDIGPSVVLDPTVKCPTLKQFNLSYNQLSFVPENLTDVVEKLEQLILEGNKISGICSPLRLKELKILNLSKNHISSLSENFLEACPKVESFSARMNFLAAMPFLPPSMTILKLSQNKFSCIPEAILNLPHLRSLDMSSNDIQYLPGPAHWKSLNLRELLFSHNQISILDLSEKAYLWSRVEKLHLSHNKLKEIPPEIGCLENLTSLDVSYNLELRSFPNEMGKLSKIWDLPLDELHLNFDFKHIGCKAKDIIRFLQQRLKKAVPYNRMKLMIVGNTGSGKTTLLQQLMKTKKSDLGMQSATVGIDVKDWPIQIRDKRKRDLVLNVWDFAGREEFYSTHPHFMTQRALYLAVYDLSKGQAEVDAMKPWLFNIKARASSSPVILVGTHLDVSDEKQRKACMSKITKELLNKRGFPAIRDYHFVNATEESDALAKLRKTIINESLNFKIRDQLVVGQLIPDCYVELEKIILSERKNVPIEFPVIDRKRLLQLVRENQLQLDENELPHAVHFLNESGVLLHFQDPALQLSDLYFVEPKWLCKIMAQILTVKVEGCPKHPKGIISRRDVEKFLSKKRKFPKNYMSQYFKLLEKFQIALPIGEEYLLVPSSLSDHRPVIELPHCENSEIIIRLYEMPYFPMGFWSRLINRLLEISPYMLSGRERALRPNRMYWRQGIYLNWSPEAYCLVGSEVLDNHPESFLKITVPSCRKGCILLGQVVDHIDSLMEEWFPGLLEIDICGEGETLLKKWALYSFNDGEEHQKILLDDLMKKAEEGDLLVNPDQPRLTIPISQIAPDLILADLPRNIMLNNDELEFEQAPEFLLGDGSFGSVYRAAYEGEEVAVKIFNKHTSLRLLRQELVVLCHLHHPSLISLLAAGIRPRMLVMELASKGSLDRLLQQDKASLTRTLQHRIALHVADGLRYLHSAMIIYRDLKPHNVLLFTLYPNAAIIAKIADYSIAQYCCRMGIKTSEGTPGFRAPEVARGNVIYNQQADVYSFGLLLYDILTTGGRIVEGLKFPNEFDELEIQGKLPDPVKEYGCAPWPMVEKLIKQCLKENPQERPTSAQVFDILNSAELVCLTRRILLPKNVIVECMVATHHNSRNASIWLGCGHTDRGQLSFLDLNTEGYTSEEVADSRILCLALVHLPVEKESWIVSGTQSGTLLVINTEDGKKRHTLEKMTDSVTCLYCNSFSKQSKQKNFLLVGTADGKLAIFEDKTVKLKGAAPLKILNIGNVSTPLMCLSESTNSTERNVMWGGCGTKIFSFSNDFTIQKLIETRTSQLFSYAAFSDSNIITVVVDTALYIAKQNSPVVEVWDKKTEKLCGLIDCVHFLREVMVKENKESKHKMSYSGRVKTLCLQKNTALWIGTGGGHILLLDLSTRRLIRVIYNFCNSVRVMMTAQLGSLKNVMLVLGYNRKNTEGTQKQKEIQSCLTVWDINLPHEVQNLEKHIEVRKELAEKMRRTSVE

| pIC50 | Structure (SMILES) |
| --- | --- |
| < 7.22 | CNc1nc(Nc2cn(CC3(CC#N)CC3)nc2C)ncc1C(F)(F)F [Compound D-1, 2-(1-((3-methyl-4-((4-(methylamino)-5-(trifluoromethyl)pyrimidin-2-yl)amino)-1H-pyrazol-1-yl)methyl)cyclopropyl)acetonitrile] |
| > 7.52 | CNc1nc(Nc2cnn(C3CCn4ccnc43)c2C)ncc1C(F)(F)F [Compound D-2, N2-[1-(6,7-dihydro-5H-pyrrolo[1,2-a]imidazol-7-yl)-5-methyl-pyrazol-4-yl]-N4-methyl-5-(trifluoromethyl)pyrimidine-2,4-diamine] |
| < 7.22 | CNc1nc(Nc2cn(CC3(Cn4cncn4)CC3)nc2C)ncc1C(F)(F)F [Compound D-5, N2-(1-((1-((1H-1,2,4-triazol-1-yl)methyl)cyclopropyl)methyl)-3-methyl-1H-pyrazol-4-yl)-N4-methyl-5-(trifluoromethyl)pyrimidine-2,4-diamine] |
| > 7.52 | CNc1nc(Nc2cnn(CC3(Cn4cncn4)CC3)c2C)ncc1C(F)(F)F [Compound D-6, N2-(1-((1-((1H-1,2,4-triazol-1-yl)methyl)cyclopropyl)methyl)-5-methyl-1H-pyrazol-4-yl)-N4-methyl-5-(trifluoromethyl)pyrimidine-2,4-diamine] |
| > 7.52 | CNc1nc(Nc2cnn(C3CCc4nnc(C)n4C3)c2C)ncc1C(F)(F)F [Compound D-7, N4-methyl-N2-[5-methyl-1-(3-methyl-5,6,7,8-tetrahydro-[1,2,4]triazolo[4,3-a]pyridin-6-yl)pyrazol-4-yl]-5-(trifluoromethyl)pyrimidine-2,4-diamine] |
| < 7.22 | CNc1nc(Nc2cn(C3CCc4nnc(C)n4C3)nc2C)ncc1C(F)(F)F [Compound D-8, N4-methyl-N2-[3-methyl-1-(3-methyl-5,6,7,8-tetrahydro-[1,2,4]triazolo[4,3-a]pyridin-6-yl)pyrazol-4-yl]-5-(trifluoromethyl)pyrimidine-2,4-diamine] |
| > 7.52 | CNc1nc(Nc2cnn(CCOC(F)F)c2C)ncc1C(F)(F)F [Compound D-9, N2-[1-[2-(difluoromethoxy)ethyl]-5-methyl-pyrazol-4-yl]-N4-methyl-5-(trifluoromethyl)pyrimidine-2,4-diamine] |
| 7.22 to 7.52 | CNc1nc(Nc2cn(CCOC(F)F)nc2C)ncc1C(F)(F)F [Compound D-10, N2-[1-[2-(difluoromethoxy)ethyl]-3-methyl-pyrazol-4-yl]-N4-methyl-5-(trifluoromethyl)pyrimidine-2,4-diamine] |
| > 7.52 | CNc1nc(Nc2cnn(CCOC(F)F)c2Cl)ncc1C(F)(F)F [Compound D-11, N2-[5-chloro-1-[2-(difluoromethoxy)ethyl]pyrazol-4-yl]-N4-methyl-5-(trifluoromethyl)pyrimidine-2,4-diamine] |
| > 7.52 | CNc1nc(Nc2cnn(CC3(COC)CC3)c2Cl)ncc1C(F)(F)F [Compound D-12, N2-[5-chloro-1-[[1-(methoxymethyl)cyclopropyl]methyl]pyrazol-4-yl]-N4-methyl-5-(trifluoromethyl)pyrimidine-2,4-diamine] |
| > 7.52 | CNc1nc(Nc2cn(C(F)(F)C#N)nc2C)ncc1C(F)(F)F [Compound D-13, 2,2-difluoro-2-[3-methyl-4-[[4-(methylamino)-5-(trifluoromethyl)pyrimidin-2-yl]amino]pyrazol-1-yl]acetonitrile] |
| > 7.52 | CNc1nc(Nc2cn(C(F)(F)C(N)=O)nc2C)ncc1C(F)(F)F [Compound D-14, 2,2-difluoro-2-[3-methyl-4-[[4-(methylamino)-5-(trifluoromethyl)pyrimidin-2-yl]amino]pyrazol-1-yl]acetamide] |
| > 7.52 | CCNc1nc(Nc2cnn(CCOC(F)F)c2C)ncc1C(F)(F)F [Compound D-15, N2-[1-[2-(difluoromethoxy)ethyl]-5-methyl-pyrazol-4-yl]-N4-ethyl-5-(trifluoromethyl)pyrimidine-2,4-diamine] |
| > 7.52 | CCNc1nc(Nc2cn(CCOC(F)F)nc2C)ncc1C(F)(F)F [Compound D-16, N2-[1-[2-(difluoromethoxy)ethyl]-3-methyl-pyrazol-4-yl]-N4-ethyl-5-(trifluoromethyl)pyrimidine-2,4-diamine] |
| > 7.52 | CNc1nc(Nc2cnn(CC(C)OC(F)F)c2C)ncc1C(F)(F)F [Compound D-17] |
| < 7.22 | CNc1nc(Nc2cn(CC(C)OC(F)F)nc2C)ncc1C(F)(F)F [Compound D-18] |
| > 7.52 | CNc1nc(Nc2cnn(C[C@@H](C)OC(F)F)c2C)ncc1C(F)(F)F [Compound D-19, N2-[1-[(2R)-2-(difluoromethoxy)propyl]-5-methyl-pyrazol-4-yl]-N4-methyl-5-(trifluoromethyl)pyrimidine-2,4-diamine] |

| pIC50 | Structure (SMILES) |
| --- | --- |
| < 7.22 | CNc1nc(Nc2cn(C[C@@H](C)OC(F)F)nc2C)ncc1C(F)(F)F [Compound D-20, N2-[1-[(2R)-2-(difluoromethoxy)propyl]-3-methyl-pyrazol-4-yl]-N4-methyl-5-(trifluoromethyl)pyrimidine-2,4-diamine] |
| 7.22 to 7.52 | CNc1nc(Nc2cn(C(C)COC(F)F)nc2C)ncc1C(F)(F)F [Compound D-21, N2-[1-[2-(difluoromethoxy)-1-methyl-ethyl]-3-methyl-pyrazol-4-yl]-N4-methyl-5-(trifluoromethyl)pyrimidine-2,4-diamine] |
| > 7.52 | CNc1nc(Nc2cnn([C@H]3C[C@H](OC(F)F)C3)c2C)ncc1C(F)(F)F [Compound D-25, trans-N2-[1-[3-(difluoromethoxy)cyclobutyl]-5-methyl-pyrazol-4-yl]-N4-methyl-5-(trifluoromethyl)pyrimidine-2,4-diamine] |
| > 7.52 | CNc1nc(Nc2cn([C@H]3C[C@H](OC(F)F)C3)nc2C)ncc1C(F)(F)F [Compound D-26, trans-N2-[1-[3-(difluoromethoxy)cyclobutyl]-3-methyl-pyrazol-4-yl]-N4-methyl-5-(trifluoromethyl)pyrimidine-2,4-diamine] |
| > 7.52 | CNc1nc(Nc2cn([C@H]3C[C@@H](n4cccn4)C3)nc2C)ncc1C(F)(F)F [Compound D-27, cis-N4-methyl-N2-[3-methyl-1-(3-pyrazol-1-ylcyclobutyl)pyrazol-4-yl]-5-(trifluoromethyl)pyrimidine-2,4-diamine] |
| > 7.52 | CNc1nc(Nc2cn([C@H]3C[C@@H](S(C)(=O)=O)C3)nc2C)ncc1C(F)(F)F [Compound D-28, cis-N4-methyl-N2-[3-methyl-1-(3-methylsulfonylcyclobutyl)pyrazol-4-yl]-5-(trifluoromethyl)pyrimidine-2,4-diamine] |
| > 7.52 | CNc1nc(Nc2cnn([C@H]3C[C@H](CC#N)C3)c2C)ncc1C(F)(F)F [Compound D-29, trans-2-[3-[4-[[5-(difluoromethyl-fluoranyl)-4-(methylamino)pyrimidin-2-yl]amino]-5-methyl-pyrazol-1-yl]cyclobutyl]acetonitrile] |
| > 7.52 | CNc1nc(Nc2cn([C@H]3C[C@H](CC#N)C3)nc2C)ncc1C(F)(F)F [Compound D-30, trans-2-[3-[4-[[5-(difluoromethyl-fluoranyl)-4-(methylamino)pyrimidin-2-yl]amino]-3-methyl-pyrazol-1-yl]cyclobutyl]acetonitrile] |
| > 7.52 | CNc1nc(Nc2cnn([C@H]3C[C@H](COC(F)F)C3)c2C)ncc1C(F)(F)F [Compound D-31, trans-N2-[1-[3-(difluoromethoxymethyl)cyclobutyl]-5-methyl-pyrazol-4-yl]-5-(difluoromethyl-fluoranyl)-N4-methyl-pyrimidine-2,4-diamine] |
| > 7.52 | CNc1nc(Nc2cn([C@H]3C[C@H](COC(F)F)C3)nc2C)ncc1C(F)(F)F [Compound D-32, trans-N2-[1-[3-(difluoromethoxymethyl)cyclobutyl]-3-methyl-pyrazol-4-yl]-5-(difluoromethyl-fluoranyl)-N4-methyl-pyrimidine-2,4-diamine] |
| > 7.52 | CNc1nc(Nc2cnn(CC3(CC#N)CC3)c2Cl)ncc1C(F)(F)F [Compound D-33, 2-(1-((5-chloro-4-((4-(methylamino)-5-(trifluoromethyl)pyrimidin-2-yl)amino)-1H-pyrazol-1-yl)methyl)cyclopropyl)acetonitrile] |
| > 7.52 | CNc1nc(Nc2cn(C3CCCn4ccnc43)nc2C)ncc1C(F)(F)F [Compound D-34, N^4-methyl-N^2-(3-methyl-1-(5,6,7,8-tetrahydroimidazo[1,2-a]pyridin-8-yl)-1H-pyrazol-4-yl)-5-(trifluoromethyl)pyrimidine-2,4-diamine] |
| > 7.52 | CNc1nc(Nc2cn(C3CCc4c(C)noc43)nc2C)ncc1C(F)(F)F [Compound D-35, N^4-methyl-N^2-(3-methyl-1-(3-methyl-5,6-dihydro-4H-cyclopenta[d]isoxazol-6-yl)-1H-pyrazol-4-yl)-5-(trifluoromethyl)pyrimidine-2,4-diamine] |
| < 7.22 | CNc1nc(Nc2cn(C3CCn4nccc43)nc2C)ncc1C(F)(F)F [Compound D-36, N^2-(1-(5,6-dihydro-4H-pyrrolo[1,2-b]pyrazol-4-yl)-3-methyl-1H-pyrazol-4-yl)-N^4-methyl-5-(trifluoromethyl)pyrimidine-2,4-diamine] |
| 7.22 to 7.52 | CNc1nc(Nc2cn(C3CCc4c3cnn4C)nc2C)ncc1C(F)(F)F [Compound D-37, N^4-methyl-N^2-(3-methyl-1-(1-methyl-1,4,5,6-tetrahydrocyclopenta[c]pyrazol-4-yl)-1H-pyrazol-4-yl)-5-(trifluoromethyl)pyrimidine-2,4-diamine] |
| > 7.52 | CCSc1nc(Nc2cn(C(C)(C)C#N)nc2C)ncc1Cl [Compound D-44, 2-[4-[(5-chloro-4-ethylsulfanyl-pyrimidin-2-yl)amino]-3-methyl-pyrazol-1-yl]-2-methyl-propanenitrile] |
| > 7.52 | CCSc1nc(Nc2cn(C(C)(C)C#N)nc2C)ncc1C(F)(F)F [Compound D-45, 2-[4-[[4-ethylsulfanyl-5-(trifluoromethyl)pyrimidin-2-yl]amino]-3-methyl-pyrazol-1-yl]-2-methyl-propanenitrile] |
